Test system: human precision cut liver slices (PCLS)
Assay: RNA-Seq of PCLS, Nonstimulation Protocol (Non-stimulated + CRV vs Non-stimulated + Vehicle)
Format: cell-based
Description: PCLS were obtained from 5 human donors who underwent resection of liver cancer. Replicate slices were collected from healthy margins of the resections and cultured for 4 or 6 days depending on the experimental protocol. In the Nonstimulation Protocol slices were cultured for 6 days and treated for the entire period with DMSO vehicle or 5 μM CRV431. In the Stimulation Protocol slices were rested for 1 day and then administered the cytokines, TGFβ and PDGF-BB, for 3 days to stimulate inflammation and fibrosis. DMSO vehicle, CRV431 (1 and 5 μM), Alk5i (10 μM), obeticholic acid (5 μM), elafibranor (5 μM), resmetirom (5 μM), and Aramchol (5 μM) were administered individually as drug treatments in the Stimulation Protocol concurrent with TGFβ+PDGF-BB. Culture medium treatments were replaced daily.
(d) Gene expression by RNA-Seq. RNA sequencing of the complete transcriptome (30 million reads per sample) was conducted on vehicle and 5 μM CRV431 treatment groups from 3 donors both from the Nonstimulation and Stimulation Protocols. Data were analyzed by bioinformatics software programs to identify genes that were differentially expressed between vehicle and CRV431 treatments.
For the evaluation done for (d), 12 samples corresponding to 3 different donor slides which underwent 4 different treatments were studied. the comparisons carried out in this analysis are: (1) TGFb/PDGF+CRV vs TGFb/PDGF+Vehicle (V), and (2) Non-stimulated+CRV vs Non-stimulated+Vehicle.
Heatmaps were generated by plotting significant differently expressed genes for the comparison Non-stimulated+CRV and Non-stimulated+Vehicle (p-adjust<0.05, log fold change>0.5). First, the heatmap with the samples grouped by group (FIG. 7A) is shown in order to observe the different expression pattern present within the group (blue=vehicle; red=CRV). Then, the same significant genes arweree plotted into a heatmap (FIG. 7B), but the samples are now plotted grouped by donor in order to observe the differences between donors (blue=vehicle; red=CRV).
Significant differently expressed genes that were identified in the comparison Non-stimulated+CRV and Non-stimulated+Vehicle ([…], log fold change>0.5) are provided in Table 3. The fold changes shown are relative to the treatment CRV.
Nonstimulated+CRV431 vs Nonstimulated+Vehicle were then compared by donor. As shown in the PCA, there was a strong effect of the donor. Therefore, the analysis was repeated as in the previous comparison. […] In other words, there were at least 300 copies more in the treatment CRV than in the vehicle. After doing this selection individually for each donor, a venn diagram was plotted showing the overlapping between all three donors. […] So, there are at least 300 copies less in the treated group compared to the vehicle. After doing the selection individually for each donor, a venn diagram was plotted showing the overlapping between all three donors.

[1] = Non-stimulated + CRV vs Non-stimulated + Vehicle, 5 μM
[2] = absence of TGFβ+PDGF-BB, all donors

## CC[C@@H]1NC(=O)[C@H]([C@H](O)[C@H](C)CCCCCCNC(C)=O)N(C)C(=O)[C@H](C(C)C)N(C)C(=O)[C@H](CC(C)C)N(C)C(=O)[C@H](CC(C)C)N(C)C(=O)[C@@H](C)NC(=O)[C@H](C)NC(=O)[C@H](CC(C)C)N(C)C(=O)[C@H](C(C)C)NC(=O)[C@H](CC(C)C)N(C)C(=O)[C@@H](C)N(C)C1=O [CRV431]
[1]
  log2FoldChange, gene AC099668.1: 1.056
  log2FoldChange, gene ACOT9: 0.543
  log2FoldChange, gene ADGRD1: −1.126
  log2FoldChange, gene AFG1L: 1.327
  log2FoldChange, gene AGT: −0.627
  log2FoldChange, gene AKAP10: −1.249
  log2FoldChange, gene ALPK3: −0.621
  log2FoldChange, gene AP000347.1: 1.809
  log2FoldChange, gene AP003119.3: −0.67
  log2FoldChange, gene APBA1: −1.158
  log2FoldChange, gene AREG: 1.034
  log2FoldChange, gene ARVCF: −0.609
  log2FoldChange, gene C4B: −0.506
  log2FoldChange, gene CACUL1: −0.94
  log2FoldChange, gene CCDC149: 0.76
  log2FoldChange, gene CCNK: 0.545
  log2FoldChange, gene CD5L: 1.675
  log2FoldChange, gene CD180: 1.051
  log2FoldChange, gene CDH11: −0.915
  log2FoldChange, gene COL27A1: −0.545
  log2FoldChange, gene CXCL5: 0.663
  log2FoldChange, gene CXCL12: 0.623
  log2FoldChange, gene CYP3A4: −2.313
  log2FoldChange, gene CYP24A1: −1.499
  log2FoldChange, gene DAAM2: 1.498
  log2FoldChange, gene DANCR: 0.693
  log2FoldChange, gene DDX60: −0.739
  log2FoldChange, gene DGKD: −0.85
  log2FoldChange, gene DKK1: 1.939
  log2FoldChange, gene DNAJB9: 0.721
  log2FoldChange, gene DUS3L: 0.745
  log2FoldChange, gene ESM1: −1.157
  log2FoldChange, gene FANCI: −1.319
  log2FoldChange, gene FSTL1: −0.595
  log2FoldChange, gene GDPD5: −0.606
  log2FoldChange, gene GEM: −0.975
  log2FoldChange, gene GMPPA: 0.768
  log2FoldChange, gene GMPPB: 0.715
  log2FoldChange, gene GOLGA8A: −0.669
  log2FoldChange, gene GYG1: 0.94
  log2FoldChange, gene HID1: 0.716
  log2FoldChange, gene HLA-F: −0.727
  log2FoldChange, gene HM13: 0.528
  log2FoldChange, gene HOOK1: −0.998
  log2FoldChange, gene IFI6: −1.273
  log2FoldChange, gene IFI44L: −2.254
  log2FoldChange, gene IFIT2: −0.812
  log2FoldChange, gene ISLR: −0.815
  log2FoldChange, gene KAT14: 0.874
  log2FoldChange, gene KIAA0513: −0.98
  log2FoldChange, gene KRT7: 0.563
  log2FoldChange, gene KRT81: 1.137
  log2FoldChange, gene L3MBTL1: −2.03
  log2FoldChange, gene LGALS3BP: −0.556
  log2FoldChange, gene LILRB4: 0.909
  log2FoldChange, gene LILRB5: 1.075
  log2FoldChange, gene MANF: 0.682
  log2FoldChange, gene MEG3: −0.682
  log2FoldChange, gene MIR194-2HG: −2.973
  log2FoldChange, gene MLLT10: −1.19
  log2FoldChange, gene MPEG1: 0.584
  log2FoldChange, gene MS4A4A: 0.735
  log2FoldChange, gene MT-CO1: −1.083
  log2FoldChange, gene MTCO1P12: −1.183
  log2FoldChange, gene NCOA3: −1.438
  log2FoldChange, gene NOTCH3: −0.564
  log2FoldChange, gene NREP: −0.638
  log2FoldChange, gene NUCB2: 0.851
  log2FoldChange, gene NUGGC: 1.136
  log2FoldChange, gene NUMA1: −0.537
  log2FoldChange, gene PALM2-AKAP2: −1.035
  log2FoldChange, gene PAN2: 0.742
  log2FoldChange, gene PDE4C: −0.669
  log2FoldChange, gene PDZD2: −1.468
  log2FoldChange, gene PEG10: 1.463
  log2FoldChange, gene PFKFB3: −0.545
  log2FoldChange, gene PGM3: 0.751
  log2FoldChange, gene PLTP: −0.584
  log2FoldChange, gene PLXNA2: 1.719
  log2FoldChange, gene POU2F2: 2.856
  log2FoldChange, gene R3HDM2: −0.678
  log2FoldChange, gene RAD51D: 1.387
  log2FoldChange, gene RARRES2: −0.766
  log2FoldChange, gene RFX1: −1.495
  log2FoldChange, gene SCRIB: 0.661
  log2FoldChange, gene SEC11C: 0.844
  log2FoldChange, gene SEC24D: 0.58
  log2FoldChange, gene SEC61B: 0.602
  log2FoldChange, gene SELL: 2.035
  log2FoldChange, gene SERPINB2: 1.255
  log2FoldChange, gene SIPA1L3: −0.652
  log2FoldChange, gene SKI: −0.931
  log2FoldChange, gene SLC2A1: −0.635
  log2FoldChange, gene SLC29A1: −0.53
  log2FoldChange, gene SNHG3: 0.665
  log2FoldChange, gene SOWAHC: −0.601
  log2FoldChange, gene SPCS3: 0.715
  log2FoldChange, gene SRGAP2B: −0.729
  log2FoldChange, gene SSR4: 0.564
  log2FoldChange, gene STX16: 0.577
  log2FoldChange, gene SYNGAP1: −1.718
  log2FoldChange, gene SYNRG: −0.74
  log2FoldChange, gene TMEM154: −1.351
  log2FoldChange, gene TNFSF14: −0.681
  log2FoldChange, gene TRPV6: 0.83
  log2FoldChange, gene TTLL3: −0.579
  log2FoldChange, gene UHRF2: −0.778
  log2FoldChange, gene UNKL: −0.916
  log2FoldChange, gene WNK1: −0.698
  log2FoldChange, gene XAF1: −0.725
[2]
  fold change in RNA, DKK1: +3.8 fold
  fold change in RNA, ESM1: −2.2 fold
  fold change in RNA, IFI44L: −4.8 fold
  fold change in RNA, NCOA3: −2.7 fold
  fold change in RNA, mIR-194-2: −7.9 fold

— patent US20210269479A1, “USE OF CY[…] FOR TREATING CANCER” (Hepion Pharmaceuticals, Inc., priority 2020, published 2021)
